Here are results for 42 molecules from patent US4387238A, “Epoxysuccinamic acid compounds” (Taisho Pharmaceutical Co., Ltd., priority 1978, dated 1983).

The test deals with T1, papain (Carica papaya, UniProt P00784).
T1 construct: purchased Sigma Chem. Co
T1 sequence (P00784 134-345): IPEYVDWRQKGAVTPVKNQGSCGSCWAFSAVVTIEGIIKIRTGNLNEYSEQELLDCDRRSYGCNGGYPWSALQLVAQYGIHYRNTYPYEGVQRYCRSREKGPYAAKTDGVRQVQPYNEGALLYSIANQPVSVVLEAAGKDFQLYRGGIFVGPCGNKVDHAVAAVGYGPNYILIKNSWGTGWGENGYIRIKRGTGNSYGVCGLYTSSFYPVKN
Description: Papain inhibitory activity (milk casein proteolysis). It counts as biochemical. Set-up: unit not given beside the values. Conditions: amount of inhibitor for 50% inhibition; pH 6.8, 40° C., casein substrate. As to the method:
Papain inhibitory activity of the compounds of the present invention was assayed as follows: To 0.5 ml of a solution of papain (80 μg/ml, Sigma Chem. Co., 2x, cry.), were added 0.25 ml of 40 mM cysteine dissolved in 20 mM disodium ethylenediamine tetraacetic acid solution adjusted pH to 6.8 with sodium hydroxide and 0.25 ml of 33 mM phosphate buffer (pH 6.8) with or without inhibitor. After incubation for 15 minutes at 40° C., the resulting mixture was added to 5 ml of 1% milk casein solution in the same buffer as described above, and further incubated for 10 minutes at 40° C. Then the mixture was mixed with 5 ml of 0.44 M trichloroacetic acid solution and followed by filtration with a sheet of Toyo filter paper No. 4.
The extinction of the filtrate was read at 280 nm. The percent inhibition was calculated from the formula, 100×(B-A)/B; wherein B stands for the absorbance without inhibitor and A for the absorbance with inhibitor. The compound Nos. in Table 2 are as defined in Examples as described hereinafter.
Consider `O=C(Nc1ccc(I)cc1)[C@@H]1O[C@H]1C(=O)OC1CCCC1` (relative stereo) [Compound No. 24, cyclopentyl N-4'-iodophenyl-2,3-epoxysuccinamate], for which the ID50 was 3.47 γ. Turning to `CC(C)OC(=O)[C@@H]1O[C@H]1C(=O)Nc1ccccc1` (relative stereo) [Compound No. 93, isopropyl N-phenyl-2,3-epoxysuccinamate], the ID50 is on record as 21.55 γ. For `CCNC(=O)[C@H]1O[C@@H]1C(=O)O` (relative stereo) [Compound No. 102, Potassium N-ethyl-2,3-epoxysuccinamate], the ID50 is on record as 1.34 γ.

In the case of `O=C(Nc1ccccc1)[C@H]1O[C@@H]1C(=O)OCC1CC=CCC1` (relative stereo) [Compound No. 53, 3'-cyclohexenemethyl N-phenyl-2,3-epoxysuccinamate], the ID50 is listed as 1.63 γ. The same measure for `O=C(NC1CCCC1)[C@H]1O[C@@H]1C(=O)Oc1ccccc1` (relative stereo) [Compound No. 47, Phenyl N-cyclopentyl-2,3-epoxysuccinamate]: 3.64 γ; for `O=C(O)[C@@H]1O[C@H]1C(=O)NC1CCCCC1` (relative stereo) [Compound No. 107, N-Cyclohexyl-2,3-epoxysuccinamic acid]: 0.214 γ; for `O=C(O)[C@@H]1O[C@H]1C(=O)NC1CCCCC1` (relative stereo) [Compound No. 100, sodium N-cyclohexyl-2,3-epoxysuccinamate]: 0.231 γ. As for `O=C(O)C1OC1C(=O)N1CCCC1C(=O)O` (stereo not drawn) [Compound No. 106, N-1'-carboxytetramethylene-2,3-epoxysuccinamic acid], the figure is 0.301 γ; as for `CCOC(=O)[C@H]1O[C@@H]1C(=O)N(CC)CC` (relative stereo) [Compound No. 57, ethyl N,N-diethyl-2,3-epoxysuccinamate], 46.30 γ; as for `CCOC(=O)[C@@H]1O[C@H]1C(=O)NC1CCCCC1` (relative stereo) [Compound No. 19, ethyl N-cyclohexyl-2,3-epoxysuccinamate], 20.83 γ. The same measure for `CCCOC(=O)[C@H]1O[C@@H]1C(=O)Nc1ccccc1` (relative stereo) [Compound No. 62, Propyl N-phenyl-2,3-epoxysuccinamate]: 6.16 γ. Consider `CNC(=O)[C@H]1O[C@@H]1C(=O)OCc1ccccc1` (relative stereo) [Compound No. 91, Benzyl N-methyl-2,3-epoxysuccinamate], for which the ID50 was 9.68 γ. As for `CCOC(=O)[C@@H]1O[C@H]1C(=O)N1CCCC1` (relative stereo) [Compound No. 73, ethyl N-tetramethylene-2,3-epoxysuccinamate], the ID50 is 128.50 γ.

For the molecule `O=C(OCCCC1CCCC1)[C@@H]1O[C@H]1C(=O)N1CCCC1` (relative stereo) [Compound No. 79, 3'-Cyclopentanepropyl N-tetramethylene-2,3-epoxysuccinamate], the ID50 is 36.25 γ. As to `O=C(Nc1cccc(F)c1)[C@H]1O[C@@H]1C(=O)OCc1ccccc1` (relative stereo) [Compound No. 49, Benzyl N-3'-fluorophenyl-2,3-epoxysuccinamate], the ID50 was 3.94 γ. On to `COC(=O)[C@@H]1O[C@H]1C(=O)NC(C)C` (stereo in doubt) [Compound No. 34, Methyl N-isopropyl-2,3-epoxysuccinamate], for which the ID50 was 32.35 γ.

With `CCOC(=O)[C@@H]1O[C@H]1C(=O)Nc1cccc(C(C)=O)c1` (relative stereo) [Compound No. 3, ethyl N-3'-acetylphenyl-2,3-epoxysuccinamate], the ID50 is 34.72 γ. On to `O=C(O)[C@@H]1O[C@H]1C(=O)Nc1ccccc1` (relative stereo) [Compound No. 105, N-phenyl-2,3-epoxysuccinamic acid], for which the ID50 was 0.278 γ. Consider `O=C(O)[C@@H]1O[C@H]1C(=O)Nc1ccccc1` (relative stereo) [Compound No. 95, potassium N-phenyl-2,3-epoxysuccinamate], for which the ID50 is recorded as 0.330 γ. For `COC(=O)[C@H]1O[C@@H]1C(=O)NC(C)C` (stereo in doubt) [Compound No. 60, Methyl N-isopropyl-2,3-epoxysuccinamate], the ID50 is given as 32.35 γ. The same measure for `COC(=O)[C@@H]1O[C@H]1C(=O)Nc1ccccc1C` (relative stereo) [Compound No. 35, Methyl N-2'-methylphenyl-2,3-epoxysuccinamate]: 16.52 γ; for `C=CCOC(=O)[C@@H]1O[C@H]1C(=O)Nc1ccccc1` (relative stereo) [Compound No. 30, allyl N-phenyl-2,3-epoxysuccinamate]: 3.68 γ. For the molecule `COC(=O)[C@H]1O[C@@H]1C(=O)NC1CCCCC1` (relative stereo) [Compound No. 61, Methyl N-cyclohexyl-2,3-epoxysuccinamate], the ID50 is given as 19.65 γ. In the case of `CCOC(=O)[C@@H]1O[C@H]1C(=O)NCc1ccco1` (relative stereo) [Compound No. 14, ethyl N-furfuryl-2,3-epoxysuccinamate], the ID50 is recorded as 67.57 γ. `CN1CCN(C(=O)[C@H]2O[C@@H]2C(=O)OCC2CCCC2)CC1` (relative stereo) [Compound No. 72, Cyclopentanemethyl N-N'-methylaminodiethylene-2,3-epoxysuccinamate]: the ID50 is given as 146.51 γ.

For `CNC(=O)[C@H]1O[C@@H]1C(=O)Oc1ccccc1` (relative stereo) [Compound No. 84, phenyl N-methyl-2,3-epoxysuccinamate], the ID50 is 12.65 γ.

Regarding `CCCCOC(=O)C1CCCN1C(=O)C1OC1C(=O)OCC` (stereo not drawn) [Compound No. 88, ethyl N-1'-carbobutoxytetramethylene-2,3-epoxysuccinamate], the ID50 was 118.41 γ. As to `O=C(O)[C@@H]1O[C@H]1C(=O)N1CCCCC1` (relative stereo) [Compound No. 101, Potassium N-pentamethylene-2,3-epoxysuccinamate], the ID50 is on record as 4.05 γ. As for `CC#CCOC(=O)[C@@H]1O[C@H]1C(=O)NCc1cccs1` (relative stereo) [Compound No. 42, 2'-Butynyl N-thenyl-2,3-epoxysuccinamate], the ID50 is given as 14.15 γ. The same measure for `CCOC(=O)[C@@H]1O[C@H]1C(=O)Nc1ccccc1O` (relative stereo) [Compound No. 4, ethyl N-2'-hydroxyphenyl-2,3-epoxysuccinamate]: 138.88 γ; for `CCOC(=O)[C@@H]1O[C@H]1C(=O)Nc1cccc(F)c1` (relative stereo) [Compound No. 10, ethyl N-3'-fluorophenyl-2,3-epoxysuccinamate]: 32.05 γ; for `CCOC(=O)[C@@H]1O[C@H]1C(=O)NCCC(C)C` (relative stereo) [Compound No. 17, ethyl N-isoamyl-2,3-epoxysuccinamate]: 28.41 γ. As for `CCCOC(=O)[C@@H]1O[C@H]1C(=O)Nc1ccc(I)cc1` (relative stereo) [Compound No. 36, Propyl N-4'-iodophenyl-2,3-epoxysuccinamate], the ID50 is listed as 4.04 γ. As for `CCOC(=O)[C@H]1O[C@@H]1C(N)=O` (relative stereo) [Compound No. 55, ethyl 2,3-epoxysuccinamate], the figure is 3.14 γ; as for `CCOC(=O)[C@@H]1O[C@H]1C(=O)Nc1ccccn1` (relative stereo) [Compound No. 11, ethyl N-2'-pyridinyl-2,3-epoxysuccinamate], 25.05 γ. As for `CCOC(=O)[C@H]1O[C@@H]1C(=O)Nc1cccc(C)c1` (relative stereo) [Compound No. 51, ethyl N-3'-methylphenyl-2,3-epoxysuccinamate], the figure is 18.66 γ. The same measure for `CCOC(=O)[C@@H]1O[C@H]1C(=O)N1CCSCC1` (relative stereo) [Compound No. 22, ethyl N-thiadiethylene-2,3-epoxysuccinamate]: 95.01 γ. `CC(C)CCOC(=O)[C@@H]1O[C@H]1C(=O)N(C)C` (relative stereo) [Compound No. 90, Isoamyl N,N-dimethyl-2,3-epoxysuccinamate]: the ID50 is given as 50.25 γ. Take `CCOC(=O)c1ccccc1NC(=O)[C@@H]1O[C@H]1C(=O)OCC` (relative stereo) [Compound No. 7, ethyl N-2'-carboethoxyphenyl-2,3-epoxysuccinamate]: the ID50 is given as 105.93 γ. The same measure for `CCOC(=O)[C@@H]1O[C@H]1C(=O)Nc1cccc(C(F)(F)F)c1` (relative stereo) [Compound No. 2, ethyl N-3'-trifluoromethylphenyl-2,3-epoxysuccinamate]: 40.30 γ; for `CCOC(=O)[C@@H]1O[C@H]1C(=O)N1CCCCC1` (relative stereo) [Compound No. 77, Ethyl N-pentamethylene-2,3-epoxysuccinamate]: 145.21 γ.

As to `CCOC(=O)[C@@H]1O[C@H]1C(=O)N(C)C` (relative stereo) [Compound No. 85, ethyl N,N-dimethyl-2,3-epoxysuccinamate], the ID50 is recorded as 39.50 γ.
